According to patent US20180280349A1, “METHODS OF TREATING CYSTIC FIBROSIS IN PATIENTS WITH RESIDUAL FUNCTION MUTATIONS” (Vertex Pharmaceuticals Incorporated, priority 2017, published 2018):

What was measured:
[1] = system: cystic fibrosis patients heterozygous for the F508del mutation and a CFTR residual function mutation; assay: Second clinical trial: eight-week, randomized, double-blind, ivacaftor-controlled, parallel-group study in 150 CF patients; assay type: in vivo, human; conditions: active comparator treatment period
Experimental: A second clinical trial was conducted with 150 cystic fibrosis patients aged 12 years and older Who were heterozygous for the F508del mutation and a CFTR residual function mutation. This trial was an eight-week, randomized, double-blind, ivacaftor-controlled, parallel-group study in CF patients. Patients were randomized 1:1 to receive tezacaftor/ivacaftor or ivacaftor following a four-week run in of ivacaftor. The mean ppFEV1 at baseline was 64.3%. The treatment difference between tezacaftor/ivacaftor and ivacaftor-treated patients for absolute change in ppFEV1 (primary endpoint) through Week 8 in the active comparator treatment period was 0.3 percentage points.
Results for tezacaftor/ivacaftor- and ivacaftor-treated patients were similar for absolute change in ppFEV1, relative change in ppFEV1 and CFQ-R Respiratory Domain Score. In the active comparator treatment period, the mean absolute change in ppFEV 1 was 0.5% in the tezacaftor/ivacaftor group and 0.2% in the ivacaftor group; the mean relative change in ppFEV1 was 1.3% in the tezacaftor/ivacaftor group and 0.5% in the ivacaftor group; and the mean absolute change in the pooled CFQ-R respiratory domain score was 0.7 points in the tezacaftor/ivacaftor group and −2.1 points in the ivacaftor group. There was a reduction in sweat chloride in tezacaftor/ivacaftor-treated patients compared to the ivacaftor group (−5.8 mmol/L).

[2] = system: cystic fibrosis patients with splice and missense mutations; assay: Clinical trial in 248 cystic fibrosis patients with splice and missense (residual function) mutations: placebo, Compound II alone, Compound I and Compound II; assay type: in vivo, human; conditions: 100 mg Compound I every 24 hours, 150 mg Compound II every 12 hours
Experimental: A clinical trial was conducted with 248 cystic fibrosis patients with splice and missense mutations. Mutations were selected for the study based on the clinical phenotype (pancreatic sufficiency), biomarker data (sweat chloride), and in vitro responsiveness to tezacaftor/ivacaftor. The patients were assigned to one of three treatment groups: placebo, Compound II alone, and Compound I and Compound II. […] As shown in.

CC(C)(C)c1cc(C(C)(C)C)c(NC(=O)c2c[nH]c3ccccc3c2=O)cc1O [Compound II, N-(2,4-di-tert-butyl-5-hydroxyphenyl)-4-oxo-1,4-dihydroquinoline-3-carboxamide]
mean absolute change in the pooled CFQ-R respiratory domain score [1]: −2.1 points | mean relative change in ppFEV1 [1]: 0.5% | mean absolute change in ppFEV1 ([1]; after four-week run in of ivacaftor): 0.2% | increase in CFQ-R score ([2]; after 8 weeks of treatment): 9.7 points | increase in ppFEV1 (percent predicted forced expiratory volume in one second) ([2]; average change from baseline after 4 and 8 weeks of treatment): 4.7 percentage points
